No end group written: not given here.
Experiments:
TNF-α = TNF-α in peripheral blood of CLP mice (ELISA); format: in vivo, mouse; conditions: 20 hours after treatment, FIG. 5
Description: (§1) Sepsis mouse models induced by cecal ligation and puncture (CLP) were prepared using 6-week-old C57BL/6 female mice (Samtako, Korea). All animal-related procedures were approved by the Institutional Animal Care and Use Committee of Hanyang University. The CLP mice were intraperitoneally administered three times (at 3, 6 and 12 hours) with an administered substance shown in Table 1. SPG-SC is a peptide complex having a sequence in which SPG-SH3 sequences were randomly mixed, and as the antibiotic, a combination of gentamycin and cephalosporin was used.
(§2) Whether a pro-inflammatory cytokine was inhibited when CLP mice were treated with a combination of SPG-SH3 and an antibiotic was determined.
(§3) Specifically, 20 hours after CLP mice were treated with the same administered substances as in Example <1-1>, the peripheral blood was obtained. The concentrations of TNF-α, IL-6, IL-1β and IL-18 in the blood were measured using an ELISA kit (BD Biosciences).

IL-6 = IL-6 in peripheral blood of CLP mice (ELISA); format: in vivo, mouse; conditions: 20 hours after treatment, FIG. 5
Description: as §1, §2, §3

CLP mice [1] = test: Total ROS in spleen of CLP mice; format: in vivo; conditions: spleen of CLP mouse; intraperitoneal at 3, 6 and 12 hours, doses of Table 1; FIG. 3
Description: (§4) The pharmaceutical composition of the present invention was intraperitoneally administered into a CLP mouse to confirm an antiinflammatory effect thereof. Specifically, the CLP mouse was anesthetized by administering pentothal sodium (50 mg/kg) intraperitoneally, and then its abdomen was dissected to expose the cecum. The cecum was ligated below the ileocecal valve, punctured twice with a 22-gauge needle, and then the abdomen was closed.
as §1
(§5) Particularly, CLP mice (n=5) treated with the same administered substances as in Example <1-1> were prepared. […] Alternatively, the spleen of the CLP mouse was obtained and fractionated, a 5 μM reagent in a mitochondrial ROS activity assay kit (CA-R933) was treated for 60 minutes, and Ex/Em was measured at 490/525 nm. […]

IL-18 = IL-18 in peripheral blood of CLP mice (ELISA); format: in vivo, mouse; conditions: 20 hours after treatment, FIG. 5
Description: as §1, §2, §3

CLP mice [2] = test: Survival of mice with CLP-induced sepsis; format: in vivo, mouse; conditions: approximately 60 hours after CLP treatment, doses of Table 1, FIG. 4
Description: as §4, §1
Specifically. CLP mice (n=7, twice; total 14) were treated with the administered substances as in Example <1-1> and monitored for 7 days.

NADPH oxidase [3] = test: NADPH oxidase activity in spleen of CLP mice; format: in vivo; conditions: spleen of CLP mouse; intraperitoneal at 3, 6 and 12 hours, doses of Table 1; FIG. 3
Description: as §4, §1, §5

NADPH oxidase [4] = test: NADPH oxidase activity in LPS-stimulated RAW2647 cells (lucigenin-ECL superoxide); format: cell-based, mouse; conditions: RAW2647 cells stimulated with LPS; treated at 1, 5 or 10 μg/mL; FIG. 2
Description: A mouse macrophage cell line, which is RAW2647 (ATCCTIB-71; American Type Culture Collection) cells, was cultured using DMEM (Invitrogen) containing 10% fetal bovine serum (FBS; Invitrogen), sodium pyruvate, non-essential amino acids, penicillin G (100 IU/ml) and streptomycin (100 μg/ml).
Whether reactive oxygen species (ROS) production is inhibited when RAW2647 cells were treated with each of SPG-SH1, SPG-SH2 or SPG-SH3 was determined. Particularly. NADPH oxidase (NOX) activity and a mitochondrial ROS level were confirmed.
Particularly, after the RAW2647 cells were stimulated with LPS, SPG-SH1, SPG-SH2 or SPG-SH3 was treated at a concentration of 1, 5 or 10 μg/mL, respectively. The NADPH oxidase activity was confirmed by measuring the production of a superoxide in the RAW2647 cells by a lucigenin (bis-N-methylacridinium nitrate)-ECL method. The production of mitochondrial ROS was determined by staining the RAW2647 cells with 5 μM of MitoSOX for 30 minutes and then measuring mean fluorescence intensity (MFI) by FACS analysis.

IL-1β = IL-1β in peripheral blood of CLP mice (ELISA); format: in vivo, mouse; conditions: 20 hours after treatment, FIG. 5
Description: as §1, §2, §3

NADPH oxidase, sequence (O70145 whole entry): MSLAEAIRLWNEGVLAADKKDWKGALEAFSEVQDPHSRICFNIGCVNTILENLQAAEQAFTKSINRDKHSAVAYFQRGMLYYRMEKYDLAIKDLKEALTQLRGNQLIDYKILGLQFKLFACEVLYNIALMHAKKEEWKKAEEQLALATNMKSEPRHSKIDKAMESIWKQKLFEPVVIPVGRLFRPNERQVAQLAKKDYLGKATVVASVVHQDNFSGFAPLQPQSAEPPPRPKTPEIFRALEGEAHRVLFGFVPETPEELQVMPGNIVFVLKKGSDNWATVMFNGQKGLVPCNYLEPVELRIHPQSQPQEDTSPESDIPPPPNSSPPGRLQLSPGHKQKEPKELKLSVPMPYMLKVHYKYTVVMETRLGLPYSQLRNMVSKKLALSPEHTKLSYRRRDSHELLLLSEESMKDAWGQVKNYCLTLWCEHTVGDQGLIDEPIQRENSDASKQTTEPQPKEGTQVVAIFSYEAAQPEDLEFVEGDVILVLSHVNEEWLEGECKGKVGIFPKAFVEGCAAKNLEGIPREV
NADPH oxidase, sequence (Q09014 whole entry, further chain): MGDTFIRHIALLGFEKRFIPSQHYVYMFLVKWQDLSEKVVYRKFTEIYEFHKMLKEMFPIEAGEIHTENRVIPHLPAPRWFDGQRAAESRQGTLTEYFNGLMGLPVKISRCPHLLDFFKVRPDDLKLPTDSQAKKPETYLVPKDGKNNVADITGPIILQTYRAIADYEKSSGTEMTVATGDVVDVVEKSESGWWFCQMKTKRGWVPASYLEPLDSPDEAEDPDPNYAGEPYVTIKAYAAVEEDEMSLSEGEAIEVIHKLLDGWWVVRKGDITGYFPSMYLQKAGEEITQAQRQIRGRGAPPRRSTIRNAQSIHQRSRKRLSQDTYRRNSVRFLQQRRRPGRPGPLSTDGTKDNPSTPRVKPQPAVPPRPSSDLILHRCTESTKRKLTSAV

Row | Substance | concentration of TNF-α (TNF-α) | concentration of IL-6 (IL-6) | total ROS level (CLP mice [1]) | concentration of IL-18 (IL-18) | survival rate (CLP mice [2]) | NADPH oxidase activity level (NADPH oxidase [3]) | NADPH oxidase activity (NADPH oxidase [4]) | concentration of IL-1β (IL-1β)
1 | SPG-SH3: β-glucan-peptide complex: schizophyllan (β-1,3-glucan) carboxylated and linked to amine group of SH3 peptide (SEQ ID NO: 4, ALLSFKKGGQTGYIPSNYV) (also: linked via amine group to carboxylated schizophyllan β-glucan) | significantly reduced | significantly reduced | significantly reduced | significantly reduced | approximately 70% | significantly reduced | lowest | significantly reduced
2 | SH3: SH3 peptide, SEQ ID NO: 4, ALLSFKKGGQTGYIPSNYV, 19 amino acids, from SH3-1 and SH3-2 sequences of c-Src (SH3) |  |  |  |  |  |  | lowest | 
